Two molecules from patent publication US20240315243A1, “A COMBINATION OF FLU[…] SEAWEED EXTRACT” (priority 2021, published 2024) can be followed below.

Data set [1] relates to Helicoverpa armigera. The experiment in a line: Whole plant greenhouse assay, binary mixture, Helicoverpa armigera. It is filed as in vivo. Conditions: tomato plants, 3rd instar larva, 72 hours; flubendiamide 30 GAH, Ascophyllum nodosum 120 GAH, solo or mixture 30 + 120 (1:4). An excerpt:
(§1) 25 to 30 days old tomato plants were used for the treatments.

The test system of data set [2] is Spodoptera litura. The experiment in a line: Whole plant greenhouse assay, binary mixture, Spodoptera litura. Format: in vivo. The note with it: tomato plants, 3rd instar larva, 72 hours; flubendiamide 30 GAH, Ascophyllum nodosum 120 GAH, solo or mixture 30 + 120 (1:4).
Text: as §1

The subject of data set [3] is Spodoptera litura. The experiment in a line: Field experiment, binary mixture, Spodoptera litura in tomato crop. It is filed as in vivo. The source says: (§2) The tomato seedlings were transplanted and all the recommended package of practices for tomato farming was followed in the experiment, except for plant protection chemicals. […] Vigor descriptive scale was totally based on visual observations.

Data set [4] has as its system tomato crop. The experiment in a line: Field experiment, binary mixture, vigor rating of tomato crop. It is filed as in vivo.
Text: (§3) The expected activity for a given combination of two active compounds (binary composition) can be calculated as follows: […]
(§4) In which E represents the expected percentage of inhibition of the disease for the combination of two pesticides at defined doses (for example equal to x and y respectively), x is the percentage of inhibition observed for the disease by the compound (1) at a given dose (equal to x), y is the percentage of inhibition observed for the disease by the compound (2) at a defined dose (equal to y).
as §2

For data set [5], the system named is tomato crop. The data set can be described thus: Field experiment, binary mixture, yield of tomato fruits. Format: in vivo. Conditions: flubendiamide 30 GAH, Ascophyllum nodosum 120 GAH, solo or mixture 30 + 120 (1:4).
Text: as §3, §4, §2

Data set [6] concerns Helicoverpa armigera. The data set can be described thus: Whole plant greenhouse assay, 3-way mixture, Helicoverpa armigera. The note with it: tomato plants, 3rd instar larva, 72 hours; flubendiamide 30 GAH, profenofos 480 GAH, Ascophyllum Nodosum 120 GAH, solo or mixtures (1:16, 4:1, 1:16:4). As to the method:
(§5) The action expected for a given combination of two or three active components can be calculated as follows: […]
(§6) The experiments were carried out to study synergies if any in terms of the use of insecticides (Flubendiamide & Profenofos) and Ascophyllum Nodosum extract mixture at ratio 1:16:4 and 1:16:6 for the control of insect pest and phytotonic effect, if any.
(§7) The whole plant assay was conducted in the greenhouse, in which the desired quantity of the compounds (Flubendiamide, Profenofos and Ascophyllum Nodosum extract) and mixture in the ratio of 1:16:4 and 1:16:6 were prepared. 40-45 days old tomato plants were used for the treatments. Prepared compounds (Table 7) were sprayed in the booth of Generation III research sprayer (to obtain uniformity in spray) with a delivery rate of about 500 L/hectare of spray solution through flat fan nozzle. After the treatment, the plants were allowed to dry and then moved to the laboratory. The treated plants were covered with a mylar sheet for restricting the larval movement. Single starved 3rd instar larva was released on to the plants individually and mylar sheet was covered at the top with a muslin cloth for better air ventilation. The observation on dead, moribund and alive larvae was recorded at 72 hours after the treatment.

Data set [7] concerns Spodoptera litura. The data set can be described thus: Whole plant greenhouse assay, 3-way mixture, Spodoptera litura. Conditions: tomato plants, 3rd instar larva, 72 hours; flubendiamide 30 GAH, profenofos 480 GAH, Ascophyllum Nodosum 120 GAH, solo or mixtures (1:16, 1:4, 4:1, 1:16:4). As to the method:
as §5, §6
as §7, with “and mylar was covered” for “and mylar sheet was covered”

For another data set, the system named is Thrips. The data set can be described thus: Whole plant greenhouse assay, 3-way mixture, Thrips. Conditions: brinjal plants, thrips nymph, 72 hours; flubendiamide 30 GAH, profenofos 480 GAH, Ascophyllum Nodosum 120 GAH, solo or mixtures (1:16, 1:4, 4:1, 1:16:4). As to the method: as §5, §6
as §7, with “days old brinjal plants were” for “days old tomato plants were”, “larval movement. Nymph of thrips was released” for “larval movement. Single starved 3rd instar larva was released”, “and mylar was covered” for “and mylar sheet was covered”

Data set [8] deals with Spodoptera litura. The data set can be described thus: Field experiment, 3-way mixture, Spodoptera litura in tomato crop. The note with it: 7 Day after application, flubendiamide 30 GAH, profenofos 480 GAH, Ascophyllum Nodosum 120 GAH, solo or mixtures (1:16, 1:16:4). As to the method:
as §5
(§8) The Field experiment was conducted at PI Industries Limited, Agricultural Research Station, Hyderabad to evaluate the efficacy of mixture of Flubendiamide, Profenofos and Ascophyllum Nodosum against Spodoptera litura in tomato crop. The tomato seedlings were transplanted and all the recommended packages of practices for tomato farming were followed in the experiment, except for plant protection chemicals. The ratio of Flubendiamide, Profenofos and Ascophyllum Nodosum mixture was 1:16:4 and 1:16:6 and the experiment was carried out in plots of 5×5 m in a randomized block design with three replications for each treatment. The applications were done with the help of a knapsack sprayer having a delivery of about 500 L/hectare. Care was taken to avoid drift of spray solution to adjacent experimental plots. Assessment of all the treatments was done for vigor, phytotoxicity and insect control. Observation on the insect larval count per plot from fifteen randomly selected plants was recorded at one day before and on 7 Day after application. […] Vigor descriptive scale was totally based on visual observations. For vigor comparison among treatments, untreated plots were considered as 100 percent and based on that rating was given to other treatments.

The subject of data set [9] is tomato crop. The data set can be described thus: Field experiment, 3-way mixture, vigor rating of tomato crop. Format: in vivo. Conditions: for plant vigor compared with control (visual observation): field, tomato crop; for Vigor rating: visual rating, untreated plots = 100 percent, flubendiamide 30 GAH, profenofos 480 GAH, Ascophyllum Nodosum 120 GAH, solo or mixtures (1:16, 1:4, 4:1, 1:16:4). An excerpt:
Vigor descriptive scale was totally based on visual observations.

Data set [10] concerns tomato crop. The experiment in a line: Field experiment, 3-way mixture, yield of tomato fruits. It is filed as in vivo. The note with it: flubendiamide 30 GAH, profenofos 480 GAH, Ascophyllum Nodosum 120 GAH, solo or mixtures (1:4, 4:1, 1:16:4). As to the method:
as §5, §8

With `Cc1cc(C(F)(C(F)(F)F)C(F)(F)F)ccc1NC(=O)c1cccc(I)c1C(=O)NC(C)(C)CS(C)(=O)=O` [Flubendiamide, 3-iodo-N′-(2-mesyl-1,1-dimethylethyl)-N-{4-[1,2,2,2-tetrafluoro-1-(trifluoromethyl)ethyl]-o-tolyl}phthalamide], the “% mortality” value in the data set on Helicoverpa armigera [1] and with Spodoptera litura [2] was 70% throughout. In the data set with Spodoptera litura [3] (30 GAH), the “efficacy against Spodoptera litura in tomato (in words)” value is listed as “effectively controlled the insect pests”. Moreover, the “Spodoptera litura (% control) 7 DAA” value in the data set on Spodoptera litura [3] (tomato, 7 DAA, flubendiamide 30 GAH, Ascophyllum nodosum 120 GAH, solo or mixture 30 + 120 (1:4)) was 66.67%. In the data set with Spodoptera litura [3] (tomato, 10 DAA, flubendiamide 30 GAH, Ascophyllum nodosum 120 GAH, solo or mixture 30 + 120 (1:4)), the “Spodoptera litura (% control) 10 DAA” value was determined as 70.00%. In addition, the “plant vigor compared with control (visual observation)” value in the data set with tomato crop [4] (field, tomato crop) is “good plant vigor”; in the data set on tomato crop [9] it was “good plant vigor”. Further, the Vigor with tomato crop [4] (visual rating, untreated plots = 100 percent, flubendiamide 30 GAH, Ascophyllum nodosum 120 GAH, solo or mixture 30 + 120 (1:4)) was found to be 110. Also, the “Yield of tomato fruits, Ton/ha (observed)” value in the data set on tomato crop [5] is listed as 60.16 Ton/ha. Further, the Observed % mortality in the data set on Helicoverpa armigera [6] is on record as 65%; with Spodoptera litura [7] it was 72%; with Thrips, 8%; in the data set with Spodoptera litura [8], 72.7%. The Vigor rating in the data set with tomato crop [9] is given as 125. Also, the “Observed yield (ton/hectare) of tomato fruits” value with tomato crop [10] worked out at 64.20 ton/hectare.
`CCCSP(=O)(OCC)Oc1ccc(Br)cc1Cl` (stereo not shown) [Profenofos, profenofos]: the Observed % mortality in the data set with Helicoverpa armigera [6] was determined as 50%; in the data set with Spodoptera litura [7] it was 52%; in the data set with Thrips, 72%; with Spodoptera litura [8], 55.6%. In the data set on tomato crop [9], the “plant vigor compared with control (visual observation)” value is given as “good plant vigor”. The Vigor rating in the data set on tomato crop [9] is given as 120. Also, the “Observed yield (ton/hectare) of tomato fruits” value in the data set with tomato crop [10] is given as 56.95 ton/hectare.
